Results on 15 molecules are retold here after US5068349A, “Mitomycin derivatives” (Kyowa Hakko Kogyo Co., Ltd., priority 1988, dated 1991).

The term MIC denotes the lowest concentration found to suppress growth. The low end stands for greater potency, the high end for weaker potency. Usually ED50 stands for the dose that gives a 50% effect, or the effect in half of the subjects. A low value points to an effect at a small dose. As usually defined, the LD50 is the dose at which mortality reaches 50%.

Values after ≈ are worked out from the molar mass of the structure shown.

Series [1] deals with Staphylococcus aureus ATCC 6538P. Nature of the series: minimum growth inhibitory concentration, agar dilution method (SA). The note with it: ATCC6538P, pH 7.0. The class given is cell-based. The method, then: (§1) The antibacterial activity of Compounds (I) against various bacteria [minimum growth inhibitory concentration (μ g/ml)] is shown in Table 3.
(§2) The minimum growth inhibitory concentration was determined by the agar dilution method at pH 7.0. In the table, names of bacteria are shown by the following symbols.
SA : Staphylococcus aureus ATCC 6538P
(In agar dilution the substance is mixed into plates at graded concentrations.)

For series [2], the system named is Klebsiella pneumoniae ATCC 10031. Nature of the series: minimum growth inhibitory concentration, agar dilution method (KP). The class given is cell-based. The note with it: ATCC10031, pH 7.0. The method, then:
as §1, §2
KP : Klebsiella pneumoniae ATCC 10031

The subject of series [3] is Proteus vulgaris ATCC 6897. Nature of the series: minimum growth inhibitory concentration, agar dilution method (PV). The format is cell-based. The note with it: ATCC6897, pH 7.0. The method, then:
as §1, §2
PV : Proteus vulgaris ATCC 6897

The test system of series [4] is Streptococcus faecium ATCC 10541. Nature of the series: minimum growth inhibitory concentration, agar dilution method (SF). The format is cell-based. The conditions noted are these: Enterococcus faecium, ATCC10541, pH 7.0. The procedure:
as §1, §2
SF : Streptococcus faecium ATCC 10541

Another series relates to Sarcoma 180 solid tumor. Nature of the series: Determination of ED50 against Sarcoma 180 solid tumor. The conditions noted are these: Mus musculus, dose at T/C 0.5 (tumor volume, 7 days after implantation), male ddY mice, 24 hours after implantation. The format is in vivo. The method, then:
(§3) LD50 and ED50 were determined by the following methods, respectively.
(2) Determination of ED50
Sarcoma 180 cells (5×10^6 cells) were implanted intraperitoneally into a ddY mouse and the cells were collected from the ascitic fluid of the animal 7 days after the implantation. The cells were washed once with sterilized physiological saline solution and then suspended in sterilized physiological saline solution to prepare a cell suspension containing 5×10^7 cells/ml. The suspension (0.1 ml) was subcutaneously implanted into the right axilla of male ddY mice weighing 20±2 g.
A test compound was dissolved in physiological saline solution or Tween 80-containing physiological saline solution, and 0.1 to 0.2 ml of the solution was administered to 5 mice as one group intraperitoneally or intravenously 24 hours after the implantation of the tumor cells.
The anti-tumor activity of the test compound was determined by measuring the major axis (a) and the minor axis (b) of the tumor 7 days after the implantation, calculating a value of (a)×(b)^2 /2 corresponding to the volume of the tumor, and calculating a ratio T/C of the volume (T) of the group which received the test compound to the volume (C) of the control group which received no test compound T/C at each dose given was plotted on a graph in which T/C is shown by an ordinary scale on the vertical axis and a dose is shown by a logarithmic scale on the abscissa. The relationship between the dose and T/C was determined to be a straight line by the least-squares method.

Series [5] in a line: Determination of LD50 (single administration, 14 days observation). The note with it: mouse, in vivo, ddY mice, Behrens Kaerber's method. The procedure:
as §3
(1) Determination of LD50
Five ddY mice were used for each group, and the test compounds were administered once to the mice intraperitoneally or intravenously. […] LD50 was calculated from the death rate of each group according to the Behrens Kaerber's method.

[6] abbreviates: Sarcoma-180, ip, 168 h, intraperitoneal.
Setting [7] is: Sarcoma-180, 168 h, intravenous.

With `COCC1=C(N)C(=O)C2=C(C1=O)N1CC3C(N3C)C1(OC)C2COC(N)=O` (stereo not drawn) [Compound 1, 6-Demethyl-6-methoxymethylporfiromycin], the MIC is 0.31 µg/mL (≈ 0.819 µM) in series [1], 0.63 µg/mL (≈ 1.66 µM) in series [2], greater than 40 µg/mL in series [3] and 0.63 µg/mL (≈ 1.66 µM) in series [4].

In the series on Sarcoma 180 solid tumor (setting [6]), `COCC1=C(N)C(=O)C2=C(C1=O)N1CC3NC3C1(OC)C2COC(N)=O` (stereo not drawn) [Compound 2, 6-Demethyl-6-methoxymethylmitomycin C] showed an ED50 of 34 mg/kg. For the same molecule, the LD50 at 336 h in series [5] (ip, intraperitoneal) is 75 mg/kg. Also, the minimal inhibitory concentration (MIC) in series [1] is 1.3 µg/mL (≈ 3.57 µM); in series [2] it was 0.31 µg/mL (≈ 0.851 µM); in series [3], 1.3 µg/mL (≈ 3.57 µM); in series [4], 1.3 µg/mL (≈ 3.57 µM).

Consider `COCC1=C(OC)C(=O)C2=C(C1=O)N1CC3NC3C1(OC)C2COC(N)=O` (stereo not drawn) [Compound 4, 6-Demethyl-6-methoxymethylmitomycin A], for which the minimal inhibitory concentration (MIC) in series [1] came out at 10 µg/mL (≈ 26.4 µM); in series [2], 0.63 µg/mL (≈ 1.66 µM); in series [3] it was 2.5 µg/mL (≈ 6.59 µM); in series [4], 10 µg/mL (≈ 26.4 µM).

Consider `CCCCOCC1=C(N)C(=O)C2=C(C1=O)N1CC3NC3C1(OC)C2COC(N)=O` (stereo not drawn) [Compound 6, 6-Demethyl-6-n-butoxymethylmitomycin C], for which the ED50 with Sarcoma 180 solid tumor (setting [6]) was determined as 38 mg/kg. This molecule displayed an LD50 at 336 h in series [5] (ip, intraperitoneal) greater than 50 mg/kg. For the same molecule, the results for the MIC in series [1], in series [2] and in series [4] were 0.63 µg/mL (≈ 1.55 µM), 5 µg/mL (≈ 12.3 µM) and 0.31 µg/mL (≈ 0.763 µM), respectively.

The molecule `COC12C(COC(N)=O)C3=C(C(=O)C(COCc4ccccc4)=C(N)C3=O)N1CC1NC12` (stereo not drawn) [Compound 7, 6-Demethyl-6-benzyloxymethylmitomycin C] had an ED50 in the series on Sarcoma 180 solid tumor (setting [6]) of 25.2 mg/kg. Besides, the LD50 at 336 h in series [5] (ip, intraperitoneal) came out at 60 mg/kg. Also, the MIC in series [1] is 0.63 µg/mL (≈ 1.43 µM); in series [2], 5 µg/mL (≈ 11.4 µM); in series [4], 0.16 µg/mL (≈ 0.363 µM).

With `COC12C(COC(N)=O)C3=C(C(=O)C(COC(C)C)=C(N)C3=O)N1CC1NC12` (stereo not drawn) [Compound 8, 6-Demethyl-6-isopropoxymethylmitomycin C], the ED50 in the series on Sarcoma 180 solid tumor (setting [7]) was 14.9 mg/kg. The LD50 at 336 h in series [5] (intravenous) is greater than 50 mg/kg. For the same molecule, the MIC in series [1] is 0.63 µg/mL (≈ 1.61 µM); in series [2] it was 0.63 µg/mL (≈ 1.61 µM); in series [3], 40 µg/mL (≈ 102 µM); in series [4], 0.31 µg/mL (≈ 0.79 µM).

As to `COC12C(COC(N)=O)C3=C(C(=O)C(CO)=C(N)C3=O)N1CC1NC12` (stereo not drawn) [Compound 10, 6-Demethyl-6-hydroxymethylmitomycin C], the MIC in series [1] was found to be 5 µg/mL (≈ 14.3 µM); in series [2], 1.3 µg/mL (≈ 3.71 µM); in series [3] it was 5 µg/mL (≈ 14.3 µM); in series [4] it was 10 µg/mL (≈ 28.5 µM).

`CCSCC1=C(N)C(=O)C2=C(C1=O)N1CC3NC3C1(OC)C2COC(N)=O` (stereo not drawn) [Compound 11, 6-Demethyl-6-ethylthiomethylmitomycin C] displayed a 50% effective dose (ED50) in the series with Sarcoma 180 solid tumor (setting [6]) of 11.6 mg/kg. This molecule also had an LD50 at 336 h in series [5] (ip, intraperitoneal) of 30 mg/kg. Moreover, the MIC was found to be 0.039 µg/mL (≈ 0.0989 µM) in series [1], 1.3 µg/mL (≈ 3.3 µM) in series [2], 0.16 µg/mL (≈ 0.406 µM) in series [3] and 0.31 µg/mL (≈ 0.786 µM) in series [4].

`COC(=O)CCSCC1=C(N)C(=O)C2=C(C1=O)N1CC3NC3C1(OC)C2COC(N)=O` (stereo not drawn) [Compound 12, 6-Demethyl-6-(2-methoxycarbonylethylthio)methylmitomycin C]: the MIC in series [1] worked out at 0.31 µg/mL (≈ 0.685 µM); in series [2] it was 0.31 µg/mL (≈ 0.685 µM); in series [3], 1.3 µg/mL (≈ 2.87 µM); in series [4], 0.63 µg/mL (≈ 1.39 µM).

Consider `COC12C(COC(N)=O)C3=C(C(=O)C(CSCCO)=C(N)C3=O)N1CC1NC12` (stereo not drawn) [Compound 13, 6-Demethyl-6-(2-hydroxyethylthio)methylmitomycin C], for which the MIC in series [1] is 10 µg/mL (≈ 24.4 µM); in series [2], 5 µg/mL (≈ 12.2 µM); in series [3] it was 40 µg/mL (≈ 97.5 µM); in series [4], 10 µg/mL (≈ 24.4 µM).

As to `CCCCCCCCCCCCSCC1=C(N)C(=O)C2=C(C1=O)N1CC3NC3C1(OC)C2COC(N)=O` (stereo not drawn) [Compound 14, 6-Demethyl-6-dodecylthiomethylmitomycin C], the figures for the MIC in series [1], in series [3] and in series [4] were 0.2 µg/mL (≈ 0.374 µM), greater than 50 µg/mL and 0.39 µg/mL (≈ 0.729 µM), respectively.

In turn, `COC12C(COC(N)=O)C3=C(C(=O)C(CSC(C)C)=C(N)C3=O)N1CC1NC12` (stereo not drawn) [Compound 16, 6-Demethyl-6-isopropylthiomethylmitomycin C] gave an ED50 in the series on Sarcoma 180 solid tumor (setting [7]) of 8.4 mg/kg. The median lethal dose (LD50) at 336 h in series [5] (intravenous) came out at 37.5 mg/kg. The minimum inhibitory concentration (MIC) is 0.16 µg/mL (≈ 0.392 µM) in series [1], 1.3 µg/mL (≈ 3.18 µM) in series [2], 10 µg/mL (≈ 24.5 µM) in series [3] and 0.078 µg/mL (≈ 0.191 µM) in series [4].

For the molecule `COC12C(COC(N)=O)C3=C(C(=O)C(CSc4ccccc4)=C(N)C3=O)N1CC1NC12` (stereo not drawn) [Compound 17, 6-Demethyl-6-phenylthiomethylmitomycin C], the 50% effect level with Sarcoma 180 solid tumor (setting [7]) (ED50) was put at a dose of 6.1 mg/kg. The molecule also registered an LD50 at 336 h in series [5] (intravenous) of 50 mg/kg. In addition, the MIC in series [1] stood at 20 µg/mL (≈ 45.2 µM); in series [2], 10 µg/mL (≈ 22.6 µM); in series [3], 40 µg/mL (≈ 90.4 µM); in series [4] it was 0.31 µg/mL (≈ 0.701 µM).

As to `COC12C(COC(N)=O)C3=C(C(=O)C(CSCc4ccccc4)=C(N)C3=O)N1CC1NC12` (stereo not drawn) [Compound 18, 6-Demethyl-6-benzylthiomethylmitomycin C], the ED50 in the series on Sarcoma 180 solid tumor (setting [7]) stood at 20.2 mg/kg. The LD50 at 336 h in series [5] (intravenous) was determined as 56.6 mg/kg. Moreover, the MIC in series [1] amounted to 0.16 µg/mL (≈ 0.35 µM); in series [2] it was 5 µg/mL (≈ 11 µM); in series [3] it was 40 µg/mL (≈ 87.6 µM); in series [4] it was 0.039 µg/mL (≈ 0.0854 µM).

`COC12C(COC(N)=O)C3=C(C(=O)C4=C(NCCSC4)C3=O)N1CC1NC12` (stereo not drawn) [Compound 20] came in with an ED50 in the series with Sarcoma 180 solid tumor (setting [7]) of 12.6 mg/kg. The molecule further showed an LD50 at 336 h in series [5] (intravenous) of 22.5 mg/kg. The MIC came out at 2.5 µg/mL (≈ 6.37 µM) in series [1], 10 µg/mL (≈ 25.5 µM) in series [2], 40 µg/mL (≈ 102 µM) in series [3] and 5 µg/mL (≈ 12.7 µM) in series [4].
